# Key:
# [1] = test system: spleen cells from unimmunized healthy SJL/J mice; test: LPS-induced polyclonal B-cell activation, 3H-thymidine incorporation; format: cell-based; conditions: LPS 50 μg/ml, LPS alone 22,737, non stimulated 2,449 cpm
# Experimental: Cells were cultured in RPMI medium containing 1.0% normal mouse serum at 37° C. for 3 days. Cultures were pulsed with 1.0 μi/well of 3H-thymidine for 16 hours and harvested for counting on an LS betaplate counter. The results were as follows:
# cpm measured with non stimulated cultures = 2,449.
# [2] = prevention of endotoxin-induced death in CD1 mice sensitized with Actinomycin D; format: in vivo, mice (Strain CD1); conditions: 0.1 mg/mouse i.v., 1 μg endotoxin i.p.; for Mice surviving: 20 mice per group
# Experimental: Prevention of endotoxin-induced death in mice, has been achieved by intravenous injection of the peptides of the invention. For this experiment, a strain of mice highly sensitive to the lethal activity of bacterial endotoxin has been used. Mice sensitized with Actinomycin D (Strain CD1) show a high sensitivity to extremely low doses of endotoxin. A dose as low as 1 μg of endotoxin per mouse (about 40 μg/kg of body weight) is able to completely kill a population of mice within 24-48 hours.
# Groups of 20 mice CD1 have been treated intravenously with the peptides of the invention, with a single dose of 0.1 mg peptide, solubilized in sterile saline, per mouse. Thirty minutes later, mice were challenged by intraperitoneal injection of 1 μg of endotoxin purified from E. Coli strain 055-B5. Surviving mice were recorded every 24 hours during a seven days-period of observation. […] Negative controls received an intravenous injection of saline.
# (§1) There were 20 mice per group. Mice surviving at each of the seven 24 hours observation periods are listed. The % survival appears in parenthesis. P expresses the level of statistical significance calculated by "t-Test" for each molecule compared to the treatment with saline, considering the total survival rate in each group.
# [3] = survival of Balb/c mice after endotoxin challenge; format: in vivo, mice (Strain Balb/c); conditions: for % survival / Mice surviving: peptides 1 mg/mouse, Polymyxin B 0.1 mg/mouse i.v., 1 mg endotoxin i.p.; for Mice surviving: 20 mice per group
# Experimental: Groups of 20 mice Balb/c have been treated intravenously with the peptides of the invention at the dose of 1 mg/mouse or with 0.1 mg/mouse of Polymyxin B (the highest dose of this drug tolerated in the mouse, when injected alone). Thirty minutes later, mice were challenged by intraperitoneal injection of 1 mg endotoxin from E.C strain 055-B5. Surviving mice were recorded every 24 hours during a seven days-period of observation. Negative controls received an intravenous injection of saline.
# as §1
# [4] = test system: Haemophilus influenzae; test: antibiotic activity, zone of inhibition on BHI plates; format: cell-based, H. influenzas; conditions: 18 hours
# Experimental: The following experiments compared the antibiotic activity of Polymyxin "B" with various peptides of the invention.
# The tests were performed on BHI plates with liquid cultures of the test organism to give a lawn. Each peptide was diluted in water and placed on sterile Wathmam 3M disks on the surface of the plate. The plates were dried and incubated at 37° C. The zone of inhibition was measured after 18 hours: […]
# [5] = Limulus (LAL) test, inhibition of LPS-induced gelation; format: biochemical, B. Pertussis; conditions: LPS/Pept (w/w) 1; LPS 0.1 μg
# From the text: As a consequence of this high-affinity binding to the Lipid A moiety of endotoxins, most of the synthetic peptide analogs have shown the ability to detoxify endotoxins as evidenced by in vitro as well as in vivo analysis. The in vitro test used, as measure of detoxification, the inhibition of the enzymatic cascade leading to the coagulation of the Lymulus lysate (LAL test) by endotoxin. The LAL test is recognized as the most sensitive and predictive test for the toxic and pyrogenic activity of LPS, since pyrogenicity in vivo is related to the release of the endogenous immune modulators Interleukin-1 (IL-l) and alfa-Tumor necrosis factor (α-TNF), the mediators responsible for the fatalities associated to septic shock. As an in vivo test confirming detoxification of LPS, was then used the Rabbit pyrogen test performed according to the United States Pharmacopeia XXI.
# The results obtained by the Limulus (LAL) test, shown in Table V, support the data obtained by measuring the Affinity of the peptides of the invention for the Lipid A moiety of LPS in that they were substantially equivalent to Polymyxin "B" in the inhibition of LPS activity on Limulus. […] Peptide I was, in fact, the one presenting the non complete structure needed for the mimick of Polymyxin "B" as the synthetic peptide analogs II, IV, VI and VII have clearly shown in the previous Table IV. […]
# [6] = direct competition with Polymyxin "B" (Affinity constant, Selectivity); format: binding, B. pertussis
# From the text: To further characterize the binding activity of the synthetic peptides for Lipid A of endotoxin, experiments of direct competition with Polymyxin "B" have been set-up in order to evaluate the Affinity constant value of Polymyxin "B" for the toxic moiety of endotoxin and ultimately to calculate the Selectivity of the synthetic peptide analogs (ratio on molar basis, between the affinity constant value of a given peptide and that of Polymyxin "B" for Lipid A).
# [7] = highest dose tolerated in the mouse when injected alone; format: in vivo; conditions: intravenously
substance,measurement,setting,value
"Polymyxin ""B""",3H-thymidine incorporation,[1]; 12.5 μg/ml,"2,366 cpm"
same,3H-thymidine incorporation,[1]; 25 μg/ml,"3,559 cpm"
same,3H-thymidine incorporation,[1]; 50 μg/ml,"2,831 cpm"
same,3H-thymidine incorporation,[1]; 100 μg/ml,"4,128 cpm"
same,% survival,[2]; 24 hs,50%
same,Mice surviving,[2]; 24 hs,10
same,% survival,[2]; 48 hs,40%
same,Mice surviving,[2]; 48 hs,8
same,% survival,[2]; 72 hs,30%
same,Mice surviving,[2]; 72 hs,6
same,% survival,[2]; 96 hs,30%
same,Mice surviving,[2]; 96 hs,6
same,% survival,[2]; 120 hs,30%
same,Mice surviving,[2]; 120 hs,6
same,% survival,[2]; 144 hs,30%
same,Mice surviving,[2]; 144 hs,6
same,% survival,[2]; 168 hs,30%
same,Mice surviving,[2]; 168 hs,6
same,% survival,[3]; 24 hs,90%
same,Mice surviving,[3]; 24 hs,18
same,% survival,[3]; 48 hs,70%
same,Mice surviving,[3]; 48 hs,14
same,% survival,[3]; 72 hs,60%
same,Mice surviving,[3]; 72 hs,12
same,% survival,[3]; 96 hs,0%
same,Mice surviving,[3]; 96 hs,0
same,% survival,[3]; 120 hs,0%
same,Mice surviving,[3]; 120 hs,0
same,% survival,[3]; 144 hs,0%
same,Mice surviving,[3]; 144 hs,0
same,% survival,[3]; 168 hs,0%
same,Mice surviving,[3]; 168 hs,0
same,safety and efficacy of treatment,"[3]; Balb/c mice, 1 mg endotoxin challenge",resulted efficacious only within three days following the endotoxin challenge
same,Zone (mm) of inhibition H. influenzas,[4]; 0.008 μg/ml,0 mm
same,Zone (mm) of inhibition H. influenzas,[4]; 0.04 μg/ml,0 mm
same,Zone (mm) of inhibition H. influenzas,[4]; 0.2 μg/ml,3 mm
same,Zone (mm) of inhibition H. influenzas,[4]; 1.0 μg/ml,6 mm
same,LAL TEST,[5],NEGATIVE
same,AFFINITY (Ka),[6]; for Lipid A of LPSbp,1.15e+07 L/mol
same,SELECTIVITY (KaANA /KaPCP),"[6]; ratio of Ka of peptide to Ka of Polymyxin ""B"" for Lipid A",1.0
same,highest dose tolerated in the mouse,[7],0.1 mg/mouse
